# In ChEMBL document CHEMBL1148445, “Synthesis of 2',5'-dideoxy-2-fluoroadenosine and 2',5'-dideoxy-2,5'-difluoroadenosine: potent P-site inhibitors of adenylyl cyclase” (J Med Chem, 2004):
# Target: Adenylate cyclase type 5 (Rattus norvegicus, UniProt Q04400)
# Experiment: Compound was evaluated for inhibition of adenylate cyclase from rat brain
# Type: tissue-based
# Chain of Adenylate cyclase type 5 (Q04400 whole entry): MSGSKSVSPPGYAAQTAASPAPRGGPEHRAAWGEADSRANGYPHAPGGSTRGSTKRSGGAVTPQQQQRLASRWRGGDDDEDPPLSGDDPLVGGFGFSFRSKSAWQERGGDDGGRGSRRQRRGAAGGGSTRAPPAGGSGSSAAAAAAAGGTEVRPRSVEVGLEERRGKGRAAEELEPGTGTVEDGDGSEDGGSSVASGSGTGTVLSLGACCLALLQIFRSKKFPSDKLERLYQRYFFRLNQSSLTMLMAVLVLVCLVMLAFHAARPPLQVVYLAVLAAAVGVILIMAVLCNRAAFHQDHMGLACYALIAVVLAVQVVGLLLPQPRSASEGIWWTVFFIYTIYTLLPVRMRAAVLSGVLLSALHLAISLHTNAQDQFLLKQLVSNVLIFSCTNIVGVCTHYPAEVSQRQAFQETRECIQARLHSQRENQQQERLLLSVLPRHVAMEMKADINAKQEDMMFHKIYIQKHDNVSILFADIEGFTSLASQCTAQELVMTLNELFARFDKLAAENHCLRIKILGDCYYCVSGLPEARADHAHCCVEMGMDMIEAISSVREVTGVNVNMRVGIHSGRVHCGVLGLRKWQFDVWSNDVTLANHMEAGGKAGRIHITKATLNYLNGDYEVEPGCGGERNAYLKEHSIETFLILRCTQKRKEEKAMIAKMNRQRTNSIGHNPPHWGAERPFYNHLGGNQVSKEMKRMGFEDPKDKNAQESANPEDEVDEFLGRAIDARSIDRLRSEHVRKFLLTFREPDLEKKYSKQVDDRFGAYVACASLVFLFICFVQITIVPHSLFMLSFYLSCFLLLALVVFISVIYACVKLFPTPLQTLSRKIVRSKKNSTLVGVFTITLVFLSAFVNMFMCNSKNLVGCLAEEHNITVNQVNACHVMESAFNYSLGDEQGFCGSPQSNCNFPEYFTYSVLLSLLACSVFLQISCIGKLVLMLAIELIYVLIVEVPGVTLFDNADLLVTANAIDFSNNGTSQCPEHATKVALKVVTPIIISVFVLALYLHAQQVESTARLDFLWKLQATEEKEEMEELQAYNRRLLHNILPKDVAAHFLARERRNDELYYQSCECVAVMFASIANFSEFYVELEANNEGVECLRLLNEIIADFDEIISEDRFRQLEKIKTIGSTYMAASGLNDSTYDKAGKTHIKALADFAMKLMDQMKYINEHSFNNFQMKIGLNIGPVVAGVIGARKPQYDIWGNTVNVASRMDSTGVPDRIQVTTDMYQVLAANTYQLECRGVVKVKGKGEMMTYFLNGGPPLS
row,IC50 [µM],Compound
1,4.6,Nc1nc(F)nc2c1ncn2[C@H]1C[C@H](O)[C@@H](CO)O1 (stereo in doubt; form 1)
2,> 100,C[C@H]1O[C@@H](n2cnc3c(N)nc(F)nc32)C[C@@H]1O (stereo in doubt; form 1)
3,29,Nc1nc(F)nc2c1ncn2[C@H]1C[C@H](O)[C@@H](CF)O1 (stereo in doubt; form 1)
4,> 100,Nc1nc(F)nc2c1ncn2[C@H]1C[C@H](O)[C@@H](CO)O1 (stereo in doubt; form 2)
5,0.89,C[C@H]1O[C@@H](n2cnc3c(N)nc(F)nc32)C[C@@H]1O (stereo in doubt; form 2)
6,0.98,Nc1nc(F)nc2c1ncn2[C@H]1C[C@H](O)[C@@H](CF)O1 (stereo in doubt; form 2)
7,> 300,Nc1ncnc2c1ncn2[C@@H]1O[C@H](CO)[C@@H](O)[C@H]1O [ADENOSINE]
8,15,Nc1ncnc2c1ncn2[C@H]1C[C@H](O)[C@@H](CO)O1 [DEOXYADENOSINE]
9,82,Nc1ncnc2c1ncn2[C@@H]1O[C@H](CO)[C@@H](O)[C@@H]1O [VIDARABINE]

row,Compound,IC50 [µM]
1,C[C@@H]1O[C@H](n2cnc3c(N)ncnc32)C[C@H]1O,2.8
